Assay results from publication PMC6406325, “ATP- and Polyphosphate-Dependent Glucokinases from Aerobic Methanotrophs” (Microorganisms, 2019).

What was measured:
Type in all cases: biochemical, Methylomonas sp. 12
polyP-Glk [1] = biological target: T1, polyP-Glk (Methylomonas sp., UniProt A0A3G4RHV5); assay: effect on glucokinase activity with polyP and glucose; details: polyP (n=45) and glucose as substrates; activator, not a phosphoryl donor; ATP concentration not printed in table (10 mM elsewhere in the source)
T1 construct: gene pglk; full-length, His6-tagged (N-terminal), E. coli Rosetta (DE3), Ni-NTA; gene 795 bp; dimer with polyP
From the text: effect on glucokinase activity with polyP and glucose on polyP-Glk

ATP-Glk [2] = biological target: T2, ATP-Glk (Methylomonas sp., UniProt A0A3G4RI75); assay: glucose 6-phosphate dehydrogenase coupled NADP+ reduction at […] nm; details: saturating ATP; Mg2+; pH 7.5; 30 °C
T2 construct: full-length, His6-tagged (N-terminal), pET30(a)+ in E. coli Rosetta (DE3), Ni-NTA; gene 990 bp; di- to hexamers

polyP-Glk [3] = biological target: T1, polyP-Glk; assay: as above; details: saturating polyP (n=45); Mg2+; pH 8.5; 28 °C
[4] = system: T3, Nc1ncnc2c1ncn2[C@@H]1O[C@H](COP(=O)(O)OP(=O)(O)OP(=O)(O)O)[C@@H](O)[C@H]1O; assay: purified protein; details: saturating glucose, Mg2+, pH 7.5, 30 °C
T3 construct: full-length, His6-tagged (N-terminal), pET30(a)+ in E. coli Rosetta (DE3), Ni-NTA; gene 990 bp; di- to hexamers

ATP-Glk [5] = biological target: T2, ATP-Glk; assay: effect on glucokinase activity with ATP and glucose
From the text: effect on glucokinase activity with ATP and glucose on ATP-Glk

T1 sequence (A0A3G4RHV5 1-264): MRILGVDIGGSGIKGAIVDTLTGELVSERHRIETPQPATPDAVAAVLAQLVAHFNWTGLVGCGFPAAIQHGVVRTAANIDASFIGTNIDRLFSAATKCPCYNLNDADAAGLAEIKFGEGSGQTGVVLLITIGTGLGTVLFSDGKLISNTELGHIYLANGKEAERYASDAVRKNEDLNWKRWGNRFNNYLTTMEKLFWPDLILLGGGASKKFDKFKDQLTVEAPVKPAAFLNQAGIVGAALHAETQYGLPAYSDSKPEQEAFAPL
T2 sequence (A0A3G4RI75 1-329): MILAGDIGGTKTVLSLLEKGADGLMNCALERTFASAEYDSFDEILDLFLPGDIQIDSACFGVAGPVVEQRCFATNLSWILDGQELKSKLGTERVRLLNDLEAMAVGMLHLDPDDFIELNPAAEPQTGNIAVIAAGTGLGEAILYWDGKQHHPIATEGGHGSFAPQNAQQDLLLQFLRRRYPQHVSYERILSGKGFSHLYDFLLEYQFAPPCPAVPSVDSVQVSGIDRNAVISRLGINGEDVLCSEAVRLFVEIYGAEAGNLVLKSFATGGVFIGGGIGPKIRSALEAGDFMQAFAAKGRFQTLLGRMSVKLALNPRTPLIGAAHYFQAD

Compound: Nc1ncnc2c1ncn2[C@@H]1O[C@H](COP(=O)(O)OP(=O)(O)OP(=O)(O)O)[C@@H](O)[C@H]1O [ATP]
- PolyP-Glk ** (polyP-Glk [1]): 155.0%

Compound: OC[C@H]1OC(O)[C@H](O)[C@@H](O)[C@@H]1O (stereo partly shown) [glucose]
- Km (ATP-Glk [2]): 80 ± 7 µM
- Km (polyP-Glk [3]): 450 ± 120 µM

Compound: ATP-Glk (Methylomonas methanica)
- Km [4]: 0.078 ± 0.0056 mM
- kcat [4]: 7.55 min⁻¹
- kcat/Km [4]: 1610 M⁻¹ s⁻¹

Compound: Nc1ncnc2c1ncn2[C@@H]1O[C@H](COP(=O)(O)OP(=O)(O)O)[C@@H](O)[C@H]1O [ADP]
- activity at 5000 µM (ATP-Glk [5]): 48.9%
